# Columns and labels:
# [1] = tested on: MDA-MB-231 cells; assay: Luciferase assay (bioluminescent cell viability); type: cell-based, human
# Method: (§1) Cell lines and culture. MCF-7 and MDA human breast cancer cell lines stably transfected with firefly luciferase gene were purchased from Caliper Life Sciences (Hanover, MD). MCF-7 cells were cultured in DMEM medium (Invitrogen, Carlsbad, CA) and MDA cells were grown in DMEM/F-12 (1:1) medium (Invitrogen). Both media were supplemented with 10% fetal bovine serum (Invitrogen) and antibiotic-antimycotic mixture (100 IU/ml penicillin and 100 μg/ml streptomycin; Cellgro). The cells were maintained at 37° C. in 5% CO2. All experiments were performed when the cells were in the logarithmic phase of growth. Luciferase assay. The MDA cell line and the hormone receptor-positive MCF-7 cell line were utilized to test the effectiveness of Sal-B and doxorubicin on cancer cell viability. Both cell lines had been stably transfected and expressed the firefly luciferase gene. The bioluminescent signal intensity reflects the cell metabolic activity, being highly correlated with the cell viability. Cell viability was evaluated using the sensitive bioluminescent optical imaging. The cells (10,000 per well) were seeded in flat-bottomed 96-well plates in the above-identified medium with 10% fetal bovine serum and allowed to grow overnight. The old medium was then replaced with fresh medium containing different concentrations of Sal-B (50, 100, 150, and 200 μM) or doxorubicin (0.1, 0.2, 0.5, and 1 μM). The cells were further cultured for 24 hours and D-luciferin was added to each well and mixed gently (final concentration of 150 μ/ml). The signal was measured with the Xenogen IVIS 200 imaging system (Caliper Life Sciences, Hopkinton, MA, USA). The system was equipped with a highly sensitive, cooled charge-coupled device (CCD) camera and a light-tight specimen box. Imaging and quantification of signals was controlled by the acquisition and analysis software Living Image 3.0. The bioluminescent signal from the cells in each well was expressed as total flux (photons per second (p/s)). At least five replicates were performed in each experiment, and each experiment was repeated at least three times. The representative data are presented.
# [2] = tested on: MCF-7 cells; assay: Luciferase assay (bioluminescent cell viability); type: cell-based, human; settings: Homo sapiens
# Method: as §1
# [3] = tested on: Bcl-xL; assay: Immunohistochemical staining of Bcl-xL in MDA tumor xenografts; type: in vivo, athymic nude mice; settings: Sal-B 80 mg/kg three times per week; untreated tumors 11.8±3.0; P<0.05
# Method: (§2) Human tumor xenografts in athymic nude mice. […] The animal protocol was approved by the Howard University Animal Care and Use Committee. Four-week-old female athymic nude mice (Nu/Nu) were obtained from Harlan Sprague Dawley (Indianapolis, IN). All mice were provided the Harlan Teklad #2018 Global 18% protein rodent diet and water ad libitum. Mice were housed in temperature-controlled rooms (74±2° F.) with a 12-hour alternating light-dark cycle. MDA cells (3×10^6/50 μL/spot) were subcutaneously injected into the both sides of lower back of mice using a 27-gauge needle. […]
# (§3) Immunohistochemical staining was performed as described previously (Hao Y, et al., “Enforced expression of miR-101 inhibits prostate cancer cell growth by modulating the COX-2 pathway in vivo,” Cancer Prev Res (Phila), 2011; 4: 1073-1083). […] For the quantification, ten high-magnification (40×) fields were randomly selected from each slide of tumors and the positive cells were counted. The protein expression was expressed as the average number of positive cells per high magnification field.
# [4] = tested on: survivin; assay: Immunohistochemical staining of survivin in MDA tumor xenografts; type: in vivo, athymic nude mice; settings: Sal-B 80 mg/kg three times per week; versus untreated group
# Method: as §2, §3
# [5] = tested on: Bcl-xL; assay: Western blot of Bcl-xL expression in MDA and MCF-7 cells; type: cell-based, human; settings: Sal-B 50 μM and 100 μM, 24 hours
# Method: (§4) The immunohistochemical results were consistent with those from Western blotting (FIG. 7, panel A). Western blot analysis was used to determine the expression of apoptosis-related proteins Bcl-XL, survivin, caspase-3 and caspase-8 (FIG. 7, panel A). β-actin was used as an internal control for Western blotting. The MCD-7 and MDA cells were treated with Sal-B (50 μM and 100 μM) and doxorubicin (0.1 μM and 1 μM), respectively, for 24 hours. Proteins were extracted from the cells with RIPA lysis buffer (Santa Cruz Biotechnology, Santa Cruz, CA) and the protein concentrations were quantified with Bio-Rad protein quantification kit. Whole-cell proteins were separated on 8% SDS-polyacrylamide gel, transferred to the polyvinylidene difluoride membrane (Bio-Rad), and then probed with the indicated primary antibodies overnight at 4° C. Washed blots were then incubated with horseradish peroxidase-conjugated anti-rabbit, anti-mouse, or anti-goat antibody (Santa Cruz Biotechnology), respectively, for one hour at room temperature. Blots were developed and visualized with ECL detection system (Bio-Rad).
# [6] = tested on: MDA tumor xenografts; assay: TUNEL assay of apoptotic cells in MDA tumor xenografts; type: in vivo, athymic nude mice; settings: Sal-B 80 mg/kg three times per week; untreated tumors 3.1±1.8; P<0.05
# Method: as §2
# Apoptotic cells in MDA tumor xenografts were also analyzed by a terminal deoxynucleotidyl transferase-mediated dUTP nick end labeling (TUNEL) assay using the TdT-FragEL DNA Fragmentation Detection Kit (EMD Millipore, Burlington, MA) as previously described (Li H, et al., “Cellular uptake and anticancer activity of salvianolic acid B phospholipid complex loaded nanoparticles in head and neck cancer and precancer cells,” Colloids Surf B Biointerfaces. 2016; 147: 65-72). […]
# [7] = tested on: glucosylceramide synthase (GCS); assay: Western blot of GCS expression in MDA and MCF-7 cells; type: cell-based, human; settings: for GCS protein level (normalized to β-actin): Sal-B 50 μM; for GCS expression, further effect versus 50 μM: Sal-B 100 μM
# Method: as §4
# To understand the mechanism underlying increased ceramide accumulation, the expression levels of GCS and GM3 synthase were measured by Western blot analysis in MDA and MCF-7 cells treated by various concentrations of Sal-B (FIG. 8). The amount of protein expression was normalized by the expression of the internal control β-actin. […] Sal-B was found effective to down-regulate GCS and GM3 synthase expression in cancer cells.
structure (smiles),measurement,setting,value
"O=C(/C=C/c1ccc(O)c2c1[C@H](C(=O)O[C@H](Cc1ccc(O)c(O)c1)C(=O)O)[C@@H](c1ccc(O)c(O)c1)O2)O[C@H](Cc1ccc(O)c(O)c1)C(=O)O [Sal-B, Salvianolic acid B]",viability at 100 µM,"[1]; Homo sapiens, MDA-MB-231, 24 h, read-out: cell viability compared with untreated cells",69%
same,IC50,"[1]; Homo sapiens, MDA-MB-231, MDA cells, 24 hours, read-out: half maximal inhibitory concentration (IC50), cell viability",125 µM
same,difference in inhibitory effect on cell viability between MDA and MCF-7 cells,"[1]; Sal-B 50-200 μM, 24 hours",No significant difference
same,viability at 100 µM,"[2]; MCF7, 24 h, read-out: cell viability compared with untreated cells",65%
same,IC50,"[2]; MCF7, MCF-7 cells, 24 hours, read-out: half maximal inhibitory concentration (IC50), cell viability",120 µM
same,expression of Bcl-xL in tumors,[3],1.3±0.4 positive cells per high magnif
same,survivin level in tumors,[4],decreasing
same,Bcl-xL protein expression,[5]; MCF-7 cells,downregulated
same,Bcl-xL protein expression,[5]; MDA cells,downregulated
same,number of apoptotic cells (TUNEL),[6],12.2±3.2
same,GCS protein level (normalized to β-actin),[7]; MCF-7 cells,sufficient to inhibit GCS protein level
same,"GCS expression, further effect versus 50 μM",[7]; MCF-7 cells,No further inhibitory effect
same,GCS protein level (normalized to β-actin),[7]; MDA cells,sufficient to inhibit GCS protein level
same,"GCS expression, further effect versus 50 μM",[7]; MDA cells,No further inhibitory effect
